These results are taken from patent publication US9018219B2, “Fused aminodihydropyrimidine derivative” (Shionogi & Co., Ltd., priority 2010, dated 2015).

pIC50: −log10 of the molar value.

The target in one experiment is T1, Recombinant human BACE-1 (Homo sapiens, UniProt P56817).
T1 construct: purchased R&D Systems
The experiment in a line: Assay of BACE1 inhibitory activity. In kind it is biochemical. To be noted: Recombinant human BACE1 7.4 nmol/L, substrate peptide 18 nmol/L, pH 5.0, 30° C. for 3 hours; read-out: IC50 (50% inhibitory concentration against the enzymatic activity). How it is done:
48.5 μL of substrate peptide solution (Biotin-XSEVNLDAEFRHDSGC-Eu: X=ε-amino-n-capronic acid, Eu=Europium cryptate) was added to each well of 96-hole half-area plate (a black plate: Costar), and after addition of 0.5 μl of the compound of the present invention (N,N′-dimethylformamide solution) and 1 μl of Recombinant human BACE-1 (R&D Systems), the reaction mixture was incubated at 30° C. for 3 hours. The substrate peptide was synthesized by reacting Cryptate TBPCOOH mono SMP (CIS bio international) with Biotin-XSEVNLDAEFRHDSGC (Peptide Institute, Inc.). The final concentrations of the substrate peptide and Recombinant human BACE1 were adjusted to 18 nmol/L and 7.4 nmol/L, respectively, and the reaction was performed in sodium acetate buffer (50 mmol/L sodium acetate, pH 5.0, 0.008% Triton X-100). After the incubation for reaction, 50 μl of 8.0 μg/ml Streptavidin-XL665 (CIS bio international) dissolved in phosphate buffer (150 mmol/L K2HPO4—KH2PO4, pH 7.0, 0.008% Triton X-100, 0.8 mol/L KF) was added to each well and left stand at 30° C. for 1 hour. After then, fluorescence intensity was measured (excitation wavelength: 320 nm, measuring wavelength: 620 nm and 665 nm) using Wallac 1420 multilabel counter (Perkin Elmer life sciences). Enzymatic activity was determined from counting ratio of each wavelength (10,000×Count 665/Count 620) and 50% inhibitory concentration against the enzymatic activity (IC50) was calculated.

Experiment [1] deals with Neuroblastoma SH-SY5Y cells (SH/APPwt) with human wild-type β-APP excessively expressed. The experiment in a line: Measurement of β-amyloid (Aβ) production inhibiting effect in cell. Type of experiment: cell-based. To be noted: 24 hours incubation, Amyloid β 1-40 HTRF in culture supernatant, read-out: IC50 (amount needed to inhibit Aβ production by 50%). How it is done:
Neuroblastoma SH-SY5Y cells (SH/APPwt) with human wild-type β-APP excessively expressed therein were prepared at 8×10^5 cells/mL, and 150 μl portions thereof were inoculated into each well of a 96-well culture plate (Falcon). The cells were cultured for 2 hours at 37° C. in a 5% gaseous carbon dioxide incubator. Then, a solution which have been preliminarily prepared by adding and suspending the compound of the present invention (DMSO (dimethyl sulfoxide) solution) so as to be 2 μl/50 μl medium was added to the cell sap. Namely, the final DMSO concentration was 1%, and the amount of the cell culture was 200 μl. After the incubation was performed for 24 hours from the addition of the test compound, 100 μl of the culture supernatant was collected from each fraction. The amount of the Aβ in each fraction was measured.
The Aβ amount was measured as follows. 10 μl of a homogeneous time resolved fluorescence (HTRF) measurement reagent (Amyloid β 1-40 peptide; IBA Molecular Holding, S.A.) and 10 μl of the culture supernatant were put into a 384-well half area microplate (black microplate, Costar) and mixed with each other, and then left standing overnight at 4° C. while the light was shielded. Then, the fluorescence intensity (excitation wavelength: 337 nm, measurement wavelength: 620 nm and 665 nm) was measured with Wallac 1420 multilabel counter (Perkin Elmer life sciences). The Aβ amount was determined from the count rate at each measurement wavelength (10000×Count 665/Count 620), and the amount needed to inhibit Aβ production by 50% (IC50) was calculated from at least six different dosages.
(In general: TR-FRET usually uses a lanthanide donor and a delayed reading to cut background.)

Another experiment addresses T2, CYP2C9 (Homo sapiens, UniProt P11712).
T2 construct: enzyme, pooled human hepatic microsome 0.2 mg protein/mL; from tissue
The experiment in a line: CYP inhibition test (CYP2C9). Type of experiment: in vitro ADME. To be noted: pooled human hepatic microsome 0.2 mg protein/mL, 15 minutes, 37° C.; read-out: IC50 CYP2C9 (tolbutamide methyl-hydroxylation). The text has this:
(§1) Using commercially available pooled human hepatic microsome, and employing, as markers, 7-ethoxyresorufin O-deethylation (CYP1A2), tolbutamide methyl-hydroxylation (CYP2C9), mephenyloin 4′-hydroxylation (CYP2C19), dextromethorphan O-demethylation (CYP2D6), and terfenedine hydroxylation (CYP3A4) as typical substrate metabolism reactions of human main five CYP enzyme forms (CYP1A2, 2C9, 2C19, 2D6, 3A4), an inhibitory degree of each metabolite production amount by a compound of the present invention was assessed. […] After the centrifugation at 3000 rpm for 15 minutes, resorufin (CYP1A2 metabolite) in the supernatant was quantified by a multi-label counter and hydroxytolbutamide (CYP2C9 metabolite), 4′-hydroxymephenyloin (CYP2C19 metabolite), dextrorphan (CYP2D6 metabolite), and terfenadine alcohol metabolite (CYP3A4 metabolite) were quantified by LC/MS/MS. Addition of only DMSO being a solvent dissolving a compound to a reaction system was adopted as a control (100%), remaining activity (%) was calculated and IC50 was calculated by reverse presumption by a logistic model using a concentration and an inhibition rate.

For a further experiment, the target named is T3, CYP2C19 (Homo sapiens, UniProt P33261).
T3 construct: enzyme, pooled human hepatic microsome 0.2 mg protein/mL; from tissue
T3 sequence (P33261 whole entry): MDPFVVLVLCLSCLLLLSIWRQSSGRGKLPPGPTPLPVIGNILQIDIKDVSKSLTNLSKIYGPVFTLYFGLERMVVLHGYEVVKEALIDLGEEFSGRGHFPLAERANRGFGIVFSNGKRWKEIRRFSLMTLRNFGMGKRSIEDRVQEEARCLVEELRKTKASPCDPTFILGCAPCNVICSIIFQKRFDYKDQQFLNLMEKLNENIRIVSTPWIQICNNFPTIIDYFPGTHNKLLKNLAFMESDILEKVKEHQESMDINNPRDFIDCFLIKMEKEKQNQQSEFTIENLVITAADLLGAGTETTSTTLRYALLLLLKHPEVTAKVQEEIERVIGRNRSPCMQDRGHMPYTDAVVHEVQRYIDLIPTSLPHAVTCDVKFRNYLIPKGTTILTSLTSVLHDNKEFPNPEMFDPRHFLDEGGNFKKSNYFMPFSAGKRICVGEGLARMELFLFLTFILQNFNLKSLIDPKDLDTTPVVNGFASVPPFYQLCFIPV
The experiment in a line: CYP inhibition test (CYP2C19). Type of experiment: in vitro ADME. Conditions: pooled human hepatic microsome 0.2 mg protein/mL, 15 minutes, 37° C.; read-out: IC50 CYP2C19 (mephenyloin 4′-hydroxylation).
Excerpt: as §1

The next experiment addresses T4, CYP2D6 (Homo sapiens, UniProt P10635).
T4 construct: enzyme, pooled human hepatic microsome 0.2 mg protein/mL; from tissue
The experiment can be described thus: CYP inhibition test (CYP2D6). To be noted: pooled human hepatic microsome 0.2 mg protein/mL, 15 minutes, 37° C.; read-out: IC50 CYP2D6 (dextromethorphan O-demethylation). Type of experiment: in vitro ADME.
Excerpt: as §1

The next experiment deals with CYP3A4 (Homo sapiens, UniProt P08684). The experiment in a line: CYP inhibition test (CYP3A4). Type of experiment: in vitro ADME. Also noted: enzyme, pooled human hepatic microsome 0.2 mg protein/mL; from tissue. To be noted: pooled human hepatic microsome 0.2 mg protein/mL, 15 minutes, 37° C.; read-out: IC50 CYP3A4 (terfenedine hydroxylation).
Chain of CYP3A4 (P08684 whole entry): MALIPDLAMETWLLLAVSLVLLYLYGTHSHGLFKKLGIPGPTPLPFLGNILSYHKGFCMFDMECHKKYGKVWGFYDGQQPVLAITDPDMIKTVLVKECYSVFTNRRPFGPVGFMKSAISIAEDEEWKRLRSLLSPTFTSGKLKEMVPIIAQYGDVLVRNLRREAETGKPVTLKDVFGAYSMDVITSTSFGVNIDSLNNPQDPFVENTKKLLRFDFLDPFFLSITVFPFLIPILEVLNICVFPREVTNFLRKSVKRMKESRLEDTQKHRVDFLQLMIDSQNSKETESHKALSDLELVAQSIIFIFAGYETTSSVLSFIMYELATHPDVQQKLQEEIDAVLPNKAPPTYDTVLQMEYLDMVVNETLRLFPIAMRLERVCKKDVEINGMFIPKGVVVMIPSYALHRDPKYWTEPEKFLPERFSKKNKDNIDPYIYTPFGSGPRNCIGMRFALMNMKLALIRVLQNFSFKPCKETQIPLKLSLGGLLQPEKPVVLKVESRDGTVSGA
Excerpt: as §1

T2 sequence (P11712 whole entry): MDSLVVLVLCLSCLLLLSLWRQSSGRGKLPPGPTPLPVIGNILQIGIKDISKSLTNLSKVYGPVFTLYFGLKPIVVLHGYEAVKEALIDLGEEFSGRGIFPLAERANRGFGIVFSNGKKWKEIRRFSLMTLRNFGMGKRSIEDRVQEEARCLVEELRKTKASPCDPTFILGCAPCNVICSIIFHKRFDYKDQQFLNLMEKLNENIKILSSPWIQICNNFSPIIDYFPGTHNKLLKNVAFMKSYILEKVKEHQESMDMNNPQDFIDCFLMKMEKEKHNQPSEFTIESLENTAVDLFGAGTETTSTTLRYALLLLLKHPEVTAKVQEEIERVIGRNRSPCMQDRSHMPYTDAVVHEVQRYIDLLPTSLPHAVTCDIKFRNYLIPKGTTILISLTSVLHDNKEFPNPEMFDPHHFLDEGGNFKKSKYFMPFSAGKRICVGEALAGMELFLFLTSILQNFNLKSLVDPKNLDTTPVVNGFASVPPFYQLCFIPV
T1 sequence (P56817 46-501): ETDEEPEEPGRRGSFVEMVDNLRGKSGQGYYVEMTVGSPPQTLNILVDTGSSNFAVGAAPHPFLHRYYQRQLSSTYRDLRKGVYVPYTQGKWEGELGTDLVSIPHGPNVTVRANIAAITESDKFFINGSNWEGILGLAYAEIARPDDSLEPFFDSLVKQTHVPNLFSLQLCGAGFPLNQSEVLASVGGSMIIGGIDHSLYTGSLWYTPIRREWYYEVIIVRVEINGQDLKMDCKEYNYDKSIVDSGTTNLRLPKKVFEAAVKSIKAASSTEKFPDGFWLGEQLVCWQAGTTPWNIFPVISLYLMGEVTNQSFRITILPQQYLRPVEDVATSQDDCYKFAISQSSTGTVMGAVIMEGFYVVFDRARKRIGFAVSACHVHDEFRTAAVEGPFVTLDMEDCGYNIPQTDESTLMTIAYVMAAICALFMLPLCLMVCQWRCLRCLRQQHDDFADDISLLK
T4 sequence (P10635 whole entry): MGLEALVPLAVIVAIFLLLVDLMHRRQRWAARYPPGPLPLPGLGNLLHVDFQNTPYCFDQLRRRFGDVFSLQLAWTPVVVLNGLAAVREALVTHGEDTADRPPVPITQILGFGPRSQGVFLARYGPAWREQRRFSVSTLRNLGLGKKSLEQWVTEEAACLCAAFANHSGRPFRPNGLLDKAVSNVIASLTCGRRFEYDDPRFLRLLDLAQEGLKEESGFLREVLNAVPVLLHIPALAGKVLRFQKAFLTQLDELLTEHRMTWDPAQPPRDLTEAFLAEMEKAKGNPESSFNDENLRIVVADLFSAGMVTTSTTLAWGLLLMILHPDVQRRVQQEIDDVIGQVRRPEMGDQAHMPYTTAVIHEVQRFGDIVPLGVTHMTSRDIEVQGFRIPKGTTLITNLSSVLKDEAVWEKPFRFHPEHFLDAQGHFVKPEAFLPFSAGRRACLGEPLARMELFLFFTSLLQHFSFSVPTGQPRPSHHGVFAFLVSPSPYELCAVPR

For `C[C@@]1(c2cc(-c3cccnc3F)ccc2F)Cc2nccn2C(N)=N1` [Compound I-2], the pIC50 at Recombinant human BACE-1 is at least 6.00; in experiment [1], at least 6.00; at CYP2C9, below 4.70; on CYP2C19 it was below 4.70; at CYP2D6, below 4.70; at CYP3A4, below 4.70.
